Assay results published in patent publication US20230263944A1, “DUAL FUNCTION SURFACE FOR CELL CAPTURE AND SPREADING” (THE ROYAL INSTITUTION FOR THE ADVANCEMENT OF …, priority 2020, published 2023).

Columns and labels:
HUVEC cells = assay: HUVEC seeding on Protein G / anti-CD144 / RGD-TAMRA polystyrene well plate; type: cell-based, human; settings: 3 h shaker incubation; for HUVEC attachment to the surface: serum free medium
Method: A 6 well plate was seeded with the following conditions in each well (W1-W6):
The functionalized surface was rinsed with phosphate buffer saline (PBS) and […]. HUVEC cells were used and were seeded in each well in serum free medium at a concentration of 19,000 cells/mL. The plate was incubated for 3 hours on an incubation shaker then imaged under the microscope. The plate were left to incubate for another 21 h (total 24 h) at 37° C. 5% CO2 and imaged again.

[1] = ELISA on L605 CoCr substrates modified with peptides and antibodies; settings: dark, ambient conditions, covalent peptide grafting vs adsorption
Method: (A) Without S-SMPB, peptides adsorb onto L605 which can change antibody orientation on surfaces. (B) 12-well plate with CoCr samples at the end of the ELISA. For custom ELISAs, RGD-TAMRA was detected using anti Rhodamine followed by HRP-labelled secondary antibodies. Anti CD309 was detected using an HRP-labelled F(ab′)2 secondary antibody on a separate set of samples. HRP activity was quantified by measuring A450 of supernatant collected after 30 min incubation with TMB substrate+addition of stop solution. […] N=3 L605 samples except G-I (N=9 images).

[2] = ELISA of functionalized CoCr surfaces after gamma-irradiation; type: physicochemical; settings: two one-side t-test, 15% difference considered practically equivalent
Excerpt: (A) Principle of the ELISA method used to detect immobilized antibodies via horseradish peroxidase (HRP) conjugated secondary antibodies. (B) ELISA method used to detect immobilized RGD-TAMRA peptides via primary anti rhodamine antibodies followed by HRP conjugated secondary antibodies.

[3] = test system: endothelial colony forming cells (ECFCs); assay: ECFC seeding on modified polystyrene surfaces under static conditions; type: cell-based, human; settings: vs unmodified aminated polystyrene surfaces
Excerpt: Cells were stained for F-actin (red) and DAPI (blue). Images were used to quantify cell number and surface area per cell. Unmodified=aminated polystyrene surfaces without further modifications. **p<0.01, *p<0.05 with N=3 experimental replicas.
To test whether the bifunctional surfaces can impart two significant effects on cells of interests, ECFCs derived from human peripheral blood were either seeded on the modified surfaces under static conditions or flown over the surfaces in a perfusion loop under 1 dyn/cm^2 wall shear stress. […] The two molecules were mixed together at the center point concentrations of the previously described surface model.

ECFCs = assay: Surface endothelialization of functionalized CoCr vascular stents in a perfusion model; type: cell-based, human; settings: flow
Excerpt: (A) Representative fluorescence images of ECFCs on the surface of modified stents (after plasma amination) and an unmodified control after 2 and half hours of circulating ECFCs over the stents in a perfusion model at 1 dyn/cm^2 wall shear stress. ECFCs were stained for F-actin (red) and nuclei (blue). Phase contrast images show the corresponding stent structure. Flow direction was from right to left. (B) Quantification of cell adhesion parameters from the fluorescence images. *P<0.05 and **P<0.01 with N=3 experimental replicas from different ECFC donors.
As encompassed herein, the modifications can be applied to different aminated substrates—as shown on polystyrene (FIGS. 4-13) and on cobalt-chromium (CoCr) (FIGS. 16-18). The modifications can be applied to different geometries while retaining the benefits observed on flat substrates.

Substance	HUVEC spreading (HUVEC cells)	HUVEC attachment to the surface (HUVEC cells)	ELISA signal after 28d storage [1]	ELISA signal after gamma-irradiation [2]	surface area of the ECFCs (cell spreading) [3]	surface area of the ECFCs (cell spreading) ([3]; listed as RGD peptides)	cell spreading on CoCr stents (ECFCs)
collagen	spread more	strongly attach					
CGK(PEG3-TAMRA)GGRGDS-NH2 [RGD-TAMRA]		strongly attach	significantly higher	practically equivalent	significantly higher than the controls	increase cell spreading	higher cell spreading
